In brackets after ≈: the same amount, converted by molar mass. Where two headings read alike, the source gives them in different places. No end group written: not given here.
Tests used:
[1] = tested on: S. aureus USA300 LAC preformed biofilms; conditions: S. aureus USA300 LAC and other clinical strains (USA200, USA400, Mu50); cited from earlier work
Procedure: Here, we compared the antibiofilm activity of SK-24 with that of GF-17, GI-20, and 17BIPHE2 against the 24 h preformed biofilms of S. aureus USA300. […] Only SK-24 a ...

[2] = HPLC retention time (measure of peptide hydrophobicity); type: physicochemical; conditions: chromatographic, Waters C8 symmetry hydrophobic column, as described in ref 34; used as indicator of peptide hydrophobicity
Excerpt: In the membrane-bound LL-37 structure determined by 3D NMR spectroscopy, a hydrophobic gap exists (Figure 1A). The location of a hydrophilic S9 on the hydrophobic surface of LL-37 splits the long helix into two hydrophobic domains (gold sticks). The SK-24 peptide we identified here corresponds to the long hydrophobic domain [26]. The amino acid sequence of SK-24, along with LL-37 and its derived antimicrobial peptides, is depicted in Figure 1B. Peptide parameters, including net charge, hydrophobic content, Boman index, GRAVY, hydrophobicity, and hydrophobic moment of each peptide, were calculated using online tools, such as the APD [8] and HeliQuest (Table 1). Except for the shortest RI-10 (net charge +3), LL-37 and its other derived peptides have net charges +5 or +6, above the average net charge (+3.3) of natural antimicrobial peptides registered in the APD [8, 35, 36]. Overall, the hydrophobic percentages (Pho) of these peptides calculated in the APD are proportional to the hydrophobicity and hydrophobic moment calculated by HeliQuest in Table 1. Of note, LL-37 has the highest net charge (+6) and Boman index but the lowest Pho%, GRAVY, and hydrophobic moment.
All peptides were chemically synthesized and purified to >95% (Genemed Synthesis, San Antonio, TX, USA). The quality of each peptide was determined based on mass spectrometry (MS) and high-performance liquid chromatography (HPLC). Peptide stock solutions were freshly made by solubilizing in autoclaved distilled water, and their concentrations were quantitated using UV spectroscopy based on the absorbance difference at 215 and 225 nm as described. Peptide retention time was measured on a Waters C8 symmetry hydrophobic column as described. Other chemicals were purchased from Sigma (St. Louis, MO, USA) unless specified.

E. faecium V284-17 = type: cell-based, Enterococcus faecium
[3] = tested on: A. baumannii B28-16 preformed biofilms; assay: Disruption of preformed biofilms (XTT); type: cell-based, Acinetobacter baumannii; conditions: for Biofilm disruption: 72 h preformed biofilms, peptide 64 μM, highest concentration tested; for Disruption of 48 h biofilms: biofilms established for 48 h; for Disruption of 48 h biofilms / Reduction of 24 h biofilms: 24 h treatment; for Reduction of 24 h biofilms: biofilms established in 24 h
Procedure: (§1) The antibiofilm activities of peptides against the preformed biofilms of A. baumannii B28-16 and S. aureus USA300 LAC were evaluated as follows. Bacteria in the logarithmic growth phase were adjusted to a cell density of 10^5 colony forming unit (CFU)/mL. Two hundred microliter cells were seeded into each well of the 96-well plates. The plates were incubated at 37 °C to allow for the formation of biofilm for 24, 48, and 72 h, respectively. The planktonic cells were then removed, followed by a wash. The biofilms were then treated with 20 µL of 10× two-fold diluted peptides and 180 µL of fresh TSB media for 24 h at 37 °C. Cultures treated with water without peptide served as the positive control, and media treated with water was used as the negative control. To quantify the antibiofilm activity of the peptides, the XTT [2, 3-bis (2-methyloxy-4-nitro-5-sulfophenyl)-2H-tertazolium-5-carboxanilide] assay staining method was used to quantitate the live cells. Absorbance was read at 450 nm using a ChroMate microliter plate reader. The percentage biofilm growth for the peptide was plotted by assuming 100% biofilm growth in untreated bacterial control wells. Data were represented as mean ± standard deviation (SD). The data are statistically significant at p < 0.05. Plots were generated using GraphPad Prism v7 (GraphPad Software, San Diego, CA, USA).

Human red blood cells = assay: Hemolytic assay; type: cell-based; conditions: 1 h
Procedure: Human red blood cells (hRBCs, the UNMC Blood Bank) were washed three to five times with saline (Fisher Scientific, Waltham, MA, USA) at 800 g for 10 min each time, until the supernatant was clear. The supernatant was discarded, and hRBCs were suspended in saline at a final density of 2%. Ninety microliters of hRBC suspensions were added to each well of 96-well plates containing 10 µL of 10× serially diluted peptides. After incubation at 37 °C for 1 h, the plates were centrifuged at 1500 rpm for 5 min. About 80 µL of the supernatant was carefully pipetted to a new 96-well microplate and read at 545 nm to measure the amount of hemoglobin released. The positive control was 1% Triton X-100, and the negative control was saline. The percentage of hRBC lysis was calculated based on the hemoglobin released.

S. aureus USA300 LAC [4] = assay: Membrane depolarization (DiBAC4(3)); type: cell-based, Staphylococcus aureus; conditions: DiBAC4(3) fluorescence; for Membrane depolarization ability (order, words): peptide 8 µM, similar trends at 16 and 32 µM
Procedure: The experiment was conducted as described. In brief, an overnight culture of S. aureus USA300 LAC was subcultured in a fresh TSB medium and grown to the exponential phase. Cells were spun using centrifugation and washed twice with PBS, and resuspended in twice the volume of PBS containing 25 mM glucose and incubated at 37 °C for 15 min. For membrane depolarization measurements, 500 nM (final concentration) of the dye DiBAC4 (3) (bis-(1,3- dibutylbarbituric acid) trimethine oxonol) (AnaSpec, San Jose, CA, USA) was added and vortexed gently. Aliquots of 90 μL of the energized bacteria solution were loaded to the wells, and the plate was fed into a FLUOstar Omega microplate reader. Fluorescence was read for 20 min at excitation and emission wavelengths of 485 and 520 nm, respectively, to get dye normalization. Then 10 μL of diluted peptide solutions were added and gently mixed. Fluorescence readings were recorded for 40 min, where Triton X-100 (0.1%) was used as a positive control.

K. pneumoniae E406-17 = type: cell-based, Klebsiella pneumoniae; conditions: for MIC: E406-17
Procedure: (§2) The antibiotic-resistant pathogens used in this study include the Gram-positive bacteria Enterococcus faecium V286-17 and Staphylococcus aureus USA300 LAC and the Gram-negative bacteria Klebsiella pneumoniae E406-17, Acinetobacter baumannii B28-16, Pseudomonas aeruginosa E411-17, and Escherichia coli E423-17. All bacteria were cultivated in tryptic soy broth (TSB) at 37 °C, 220 rpm.
(§3) The antibacterial activity of peptides was evaluated using a standard broth microdilution protocol with minor modifications. In brief, peptides were made at various concentrations, 10 μL per well in a 96-well polystyrene microplate. Logarithmic phase bacterial cultures (i.e., optical density (OD) at 600 nm ≈ 0.5) were diluted to 0.001 OD, and aliquots of 90 μL were added to each well. Untreated bacterial culture and medium were included as positive and negative controls, respectively. Plates were incubated at 37 °C overnight and read at 630 nm using a ChroMate Microplate Reader (Awareness Technology, Palm City, FL, USA). […] Our previously designed peptide 17BIPHE2 [32] was included as a positive control, and RI-10, a peptide without antibacterial activity in rich media, was utilized as a negative control.

E. coli E423-17 = type: cell-based, Escherichia coli
Procedure: as §2, §3

S. aureus USA300 = type: cell-based, Staphylococcus aureus
Procedure: as §2, §3

A. baumannii B28-16 = type: cell-based, Acinetobacter baumannii
Procedure: as §2, §3

[5] = tested on: S. aureus USA300 LAC preformed biofilms; assay: Disruption of preformed biofilms (XTT); type: cell-based, Staphylococcus aureus; conditions: for Antibiofilm effect on 24 h preformed biofilms: 24 h preformed biofilms of S. aureus USA300, XTT
Procedure: as §1

P. aeruginosa E411-17 = type: cell-based, Pseudomonas aeruginosa; conditions: for MIC: E411-17
Procedure: as §2, §3

S. aureus USA300 LAC [6] = assay: Membrane permeabilization (propidium iodide); type: cell-based, Staphylococcus aureus; conditions: peptide 8 µM; propidium iodide fluorescence, 2 h, PBS, 37 °C
Procedure: Membrane permeabilization was evaluated as described. In brief, bacteria were inoculated and grown overnight. A second inoculation was made and let bacteria grow to the exponential phase. Bacteria were then spun, washed, and resuspended in the same volume of PBS. A series of peptide solutions (10×) was made via two-fold dilution in a 96-well plate (10 µL each). All wells were aliquoted with 2 µL of propidium iodide (20 µM), followed by adding 88 µL of S. aureus USA300 or A. baumannii B28-16 (OD600 ~0.11 in PBS). The plate was incubated at 37 °C with continuous shaking at 100 rpm in a FLUOstar Omega microplate reader (BMG Labtech Inc., Cary, NC, USA). Fluorescence was recorded every 5 min for 2 h with excitation and emission wavelengths of 485 and 620 nm. The data were analyzed by the vendor’s software using averaged values from duplicated experiments.

[7] = 2% hRBCs in saline, 37 °C, tested 12.5–200 µM

Compound	Disruption of 24 h preformed biofilms (words, found previously) [1]	tHPLC (HPLC retention time) [2] [min]	Membrane depolarization ability (order, words) (S. aureus USA300 LAC [4])	MIC (K. pneumoniae E406-17) [µM]	MIC (E. coli E423-17) [µM]	Antibiofilm effect on 24 h preformed biofilms [5]	MIC (P. aeruginosa E411-17) [µM]	Biofilm disruption [3]	Disruption of 48 h biofilms [3]	Reduction of 24 h biofilms [3]	HC50 (50% hemolytic concentration) (Human red blood cells; red cells of human)	other results
CC[C@H](C)[C@H](NC(=O)[C@H](CCCCN)NC(=O)[C@H](CCC(=O)O)NC(=O)[C@H](CCCCN)NC(=O)[C@H](CO)NC(=O)[C@H](CCCCN)NC(=O)[C@H](CCCNC(=N)N)NC(=O)[C@H](Cc1ccccc1)NC(=O)[C@H](Cc1ccccc1)NC(=O)[C@H](CC(=O)O)NC(=O)CNC(=O)[C@H](CC(C)C)NC(=O)[C@@H](N)CC(C)C)C(=O)NCC(=O)N[C@@H](CCCCN)C(=O)N[C@@H](CCC(=O)O)C(=O)N[C@@H](Cc1ccccc1)C(=O)N[C@@H](CCCCN)C(=O)N[C@@H](CCCNC(=N)N)C(=O)N[C@H](C(=O)N[C@H](C(=O)N[C@@H](CCC(N)=O)C(=O)N[C@@H](CCCNC(=N)N)C(=O)N[C@H](C(=O)N[C@@H](CCCCN)C(=O)N[C@@H](CC(=O)O)C(=O)N[C@@H](Cc1ccccc1)C(=O)N[C@@H](CC(C)C)C(=O)N[C@@H](CCCNC(=N)N)C(=O)N[C@@H](CC(N)=O)C(=O)N[C@@H](CC(C)C)C(=O)N[C@H](C(=O)N1CCC[C@H]1C(=O)N[C@@H](CCCNC(=N)N)C(=O)N[C@H](C(=O)N[C@@H](CCC(=O)O)C(=O)N[C@@H](CO)C(=O)O)[C@@H](C)O)C(C)C)[C@@H](C)CC)C(C)C)[C@@H](C)CC [LL-37]	neither LL-37 nor RI-10 was able to disrupt	12.548	GI-20 > 17BIPHE2 > GF-17~SK-24 > LL-37									MIC (E. faecium V284-17; E. faecium V284-17, 100% TSB, 37 °C overnight, read at 630 nm): 32 µM (≈ 144 µg/mL); Disruption of preformed biofilms ([3]; biofilms formed for 24, 48 and 72 h, peptide at 8, 16, 32 or 64 μM for 24 h): unable to disrupt; HC50 (50% hemolytic concentration) (Human red blood cells; [7]): ~ 175 µM; Hemolytic activity (Human red blood cells; [7]): no hemolysis below 100 µM; Hemolysis (Human red blood cells; peptide 200 µM, 2% hRBCs in saline, 37 °C, read at 545 nm): 70%
GFKRIVQRIKDFLRNLV-NH2 (C-terminus assumed) [GF-17]	highly effective	12.197	GI-20 > 17BIPHE2 > GF-17~SK-24 > LL-37	>32	16	antibiofilm effect in a dose-dependent manner	16	30–50%	dose-dependent biofilm disruption	dose-dependent manner	~ 175 µM	MIC (S. aureus USA300): 2 to 4 µM; MIC (A. baumannii B28-16): 4 µM; MIC (E. faecium V284-17; V284-17): 2 µM
SKEKIGKEFKRIVQRIKDFLRNLV-NH2 [SK-24]		12.291	GI-20 > 17BIPHE2 > GF-17~SK-24 > LL-37	≥32	16	antibiofilm effect in a dose-dependent manner	>32	~ 70%	dose-dependent biofilm disruption	dose-dependent manner	greater than 200 µM	Membrane permeation (S. aureus USA300 LAC [6]): weakly permeated; Effect on growth at 32 μM (K. pneumoniae E406-17; K. pneumoniae E406-17, peptide 32 μM): poor effect; Staphylococcal biofilm remaining (reduced to) ([5]; 24 h preformed biofilms, peptide 32 μM, relative to untreated control = 100%): ~ 25%; Effect on growth at 32 μM (P. aeruginosa E411-17; P. aeruginosa E411-17, peptide 32 μM): poor effect; Membrane depolarization, dose dependence (S. aureus USA300 LAC [4]; peptide 4, 8, 16 and 32 µM): dose-dependent manner

Reference: paper PMC8703873, “Structure and Activity of a Selective Antibiofilm Peptide SK-24 Derived from the NMR Structure of Human Cathelicidin LL-37” (Pharmaceuticals, 2021)
